Entries after “also recorded” stand apart in the source; their conditions may differ.
Tested on: retinal ganglion cells
Experiment: Ganglion cell spiking response to electric stimulation near the soma with synaptic transmission blocked pharmacologically (cell-attached patch clamp, isolated retina)
Type: cell-based, rabbit
Conditions: for maximum number of elicited spikes in control versus with synaptic blocker: 1 sec, plot control (x) vs blocker (y), FIG. 5c, 5d; for response to 10-Hz stimulation (spikes elicited): 10 Hz sinusoidal stimulus near soma; for stimulus threshold in blocker relative to control / effect of the blockers on stimulus threshold: 50 μM CNQX or 100 μM CdCl2, paired t-test; for response to 25-Hz stimulation (spikes elicited): 25 Hz sinusoidal stimulus near soma; for synaptically mediated response of ganglion cells to stimulation: stimulation at 5-25 Hz
Experimental: The present invention provides for responses to LFSS that are synaptic in origin. To determine whether presynaptic activation played a significant role in the high sensitivity of the soma region to LFSS, the response to stimulation near the soma was measured while synaptic transmission was blocked pharmacologically. The primary source of excitatory input to ganglion cells arises via glutamatergic release from the axon terminals of bipolar cells and is mediated through AMPA/kainate receptors on the ganglion cell dendrites.
The care and use of animals followed all federal and institutional guidelines, and all protocols were approved by the Institutional Animal Care and Use Committees of the Boston VA Healthcare System and/or the Subcommittee of Research Animal Care of the Massachusetts General Hospital. New Zealand White Rabbits (˜2.5 kg) were anesthetized with injections of xylazine/ketamine and subsequently euthanized with an intracardial injection of pentobarbital sodium. Immediately after death, the eyes were removed. All procedures following eye removal were performed under dim red illumination. The front of the eye was removed, the vitreous was eliminated. The retina was separated from the retinal pigment epithelium and mounted, photoreceptor side down, to a 10-mm square piece of Millipore filter paper (0.45 μm HA Membrane Filter) that was mounted with vacuum grease to the recording chamber (˜1.0 ml volume). A 2-mm circle in the center of the Millipore paper allowed light from below to be projected on to the photoreceptors.
Patch pipettes were used to make small holes in the inner limiting membrane, and ganglion cells with large somata were targeted under visual control. Spiking was recorded with a cell-attached patch electrode (4-8MΩ) filled with superfusate. For whole-cell recordings, the patch electrode was filled with (in mM): 113 CsMeSO4, 1 MgSO4, 7.8×10^−3 CaCl2, 0.1 BABTA, 10 HEPES, 4 ATP-Na2, 0.5 GTP-Na3, 5 lidocaine N-ethyl bromide (QX314-BR), 7.5 neurobiotin chloride, pH 7.2. […] Two silver-chloride coated silver wires served as the ground and were positioned at opposite edges of the recording chamber each approximately 15 mm from the targeted cell. The retina was continuously perfused at 4 mL/min with Ames' (pH 7.4) at 36° C., equilibrated with 95% O2 and 5% CO2. Pharmacological agents were applied to the bath by switching a 3-way stopcock to a 200 mL reservoir of Ames' containing one or more of the following blockers: 50 μM 6-cyano-7-nitroquinoxaline-2,3-dione (CNQX), 100 μM cadmium chloride (CdCl2).
Pulse and sinusoidal stimuli were controlled by Multi-Channel Systems STG2004 hardware and software. Two silver-chloride coated silver wires served as the return; each was positioned approximately 8 mm from the targeted cell and approximately 12 mm from each other. The height of the stimulating electrode remained fixed at 25 μm above the inner limiting membrane. The stimulating electrode was placed either directly over the sodium-channel band on the proximal axon, or ˜1 mm lateral to the soma directly over the distal axon. Because of the use of patch clamp, spikes were clearly visible through the stimulus artifact. The efficacy of various stimulation waveforms (0.2-ms pulses and 5-Hz to 100-Hz sinusoids) was tested for the two different electrode positions.
Pulsatile stimuli were biphasic pulses (equal and opposite rectangular phases) delivered at 10 pulses per second (phase duration: 200 μsec; interphase delay: 10 ms; cathodic phase first). The interphase delay was long enough for the neural response to the cathodic pulse to be completed before the onset of the anodic phase. For each stimulus amplitude, 15-30 pulses were delivered and there was a delay of >5 sec between stimulation epochs. Pulses of this duration and over the range of stimulus amplitudes produced either a single spike or no spike. If a spike was elicited, it immediately followed the cathodal pulse. […]

[1] = single blocker in bath: 50 μM CNQX or 100 μM CdCl2 alone
[2] = single blocker: 50 μM CNQX (n=6) or 100 μM CdCl2 (n=4)

Row | SMILES | maximum number of elicited spikes in control versus with synaptic blocker (10-Hz stimulation) | response to 10-Hz stimulation (spikes elicited) [1] | stimulus threshold in blocker relative to control (10 Hz stimulation) | response to 25-Hz stimulation (spikes elicited) [2] | maximum number of elicited spikes in control versus with synaptic blocker (25 Hz stimulation) | stimulus threshold in blocker relative to control (25 Hz stimulation) | maximum number of elicited spikes in control versus with synaptic blocker (100-Hz stimulation) | effect of the blockers on stimulus threshold (100-Hz stimulation) | synaptically mediated response of ganglion cells to stimulation (CNQX applied) | response to 10-Hz stimulation (spikes elicited) (100 μM CdCl2 added to 50 μM CNQX, n=2/2) | response to 25-Hz stimulation (spikes elicited) (CNQX and CdCl2 both present (n=2)) | synaptically mediated response of ganglion cells to stimulation (cadmium applied in addition to CNQX)
1 | N#Cc1cc2c(cc1[N+](=O)[O-])=NC(=O)C(=O)N=2 [CNQX, 6-cyano-7-nitroquinoxaline-2,3-dione] | largely clustered around the x-axis | greatly reduced; also recorded: completely eliminated | increased significantly | greatly reduced; also recorded: blocks much of this response | mostly scattered between the line of unity slope and the x-axis | increased significantly | largely clustered around the line of unity slope | not significant | greatly reduced | – | – | –
2 | [Cl][Cd][Cl] [CdCl2, cadmium chloride] | largely clustered around the x-axis | completely eliminated; also recorded: greatly reduced | increased significantly | greatly reduced | mostly scattered between the line of unity slope and the x-axis | increased significantly | largely clustered around the line of unity slope | not significant | – | mostly eliminated | greatly reduced | completely abolish
